# Results as given in patent US11713339B2, “Macrocyclization of peptidomimetics” (UNIVERSITY OF WARWICK, priority 2018, dated 2023).
# Several values for one entry are separate records, joined by “and”; a condition that tells them apart may be missing. Equal entries are not always repeated. Where two headings read alike, the source gives them in different places.
# Assays:
# [1] = target: T1, porcine Aminopeptidase N (APN) (Sus scrofa, UniProt P15145); assay: in vitro inhibition assay of aminopeptidase N (spectrophotometric, L-leucine-p-nitroanilide substrate); type: biochemical; conditions: microsomal aminopeptidase from porcine kidney (pAPN), L-leucine-p-nitroanilide 250 μM, PBS pH 7.2, 37° C., 1 hour, UV 405 nm
# T1 construct: microsomal aminopeptidase from porcine kidney (pAPN, Sigma Aldrich) (18 units/mg protein); purchased Sigma Aldrich; host or cells: porcine kidney (tissue-derived enzyme preparation)
# T1 sequence (P15145 1-963): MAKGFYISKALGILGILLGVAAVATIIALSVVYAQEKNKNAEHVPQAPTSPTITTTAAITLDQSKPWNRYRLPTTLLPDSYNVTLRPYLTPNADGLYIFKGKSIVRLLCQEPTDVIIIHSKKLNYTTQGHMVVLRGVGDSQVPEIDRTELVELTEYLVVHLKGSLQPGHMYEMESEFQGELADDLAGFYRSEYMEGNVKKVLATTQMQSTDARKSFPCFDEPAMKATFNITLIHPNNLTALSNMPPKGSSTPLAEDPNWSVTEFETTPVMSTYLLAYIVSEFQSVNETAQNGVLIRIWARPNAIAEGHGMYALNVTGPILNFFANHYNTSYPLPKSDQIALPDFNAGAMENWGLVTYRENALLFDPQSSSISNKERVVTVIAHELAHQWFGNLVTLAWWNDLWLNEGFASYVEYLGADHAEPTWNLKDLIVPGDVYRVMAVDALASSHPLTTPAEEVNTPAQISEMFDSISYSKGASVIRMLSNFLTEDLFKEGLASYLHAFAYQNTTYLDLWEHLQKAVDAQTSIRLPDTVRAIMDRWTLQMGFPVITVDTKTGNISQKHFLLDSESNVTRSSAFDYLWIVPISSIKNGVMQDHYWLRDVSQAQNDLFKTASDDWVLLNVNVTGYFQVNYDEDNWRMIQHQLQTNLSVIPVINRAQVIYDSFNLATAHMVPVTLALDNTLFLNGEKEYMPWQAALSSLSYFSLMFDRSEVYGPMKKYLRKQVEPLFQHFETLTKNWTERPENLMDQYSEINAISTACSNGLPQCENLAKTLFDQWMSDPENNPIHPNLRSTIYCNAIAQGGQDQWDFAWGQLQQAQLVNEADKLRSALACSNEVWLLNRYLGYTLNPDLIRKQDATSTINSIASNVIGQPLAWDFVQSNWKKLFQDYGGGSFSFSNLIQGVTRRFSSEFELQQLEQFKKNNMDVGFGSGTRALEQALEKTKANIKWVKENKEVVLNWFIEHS
# Method: IC50 values were calculated by following the formation of p-nitroaniline. Formation of p-nitroaniline was monitored by measurement of the UV absorption at 405 nm on a Hidex Sense plate reader. The assay was performed in a 96-well plate in PBS buffer (pH 7.2, 1.47 mM KH2PO4, 7.8 mM Na2HPO4, 137 mM NaCl, 2.7 mM KCl, 1.8 mM CaCl2, 1.8 mM MgCl2) at 37° C. with a total volume of 100 μL. […] The peptides were incubated with the enzyme (1.0 μg/mL) for 5 min. before a solution of L-leucine-p-nitroanilide was added with a final concentration of 250 μM. The plate was incubated at 37° C. for 1 hour before the p-nitroaniline was detected. […] For the calculation of the IC50 values log of the concentration was plotted against the UV absorption in GraphPad Prism 5 using nonlinear regression (variable slope (four parameters) with interpolation) for analysis.
# [2] = amide bond, DMF, 25.0 °C
# [3] = 25.0 °C
# [4] = 25.0 °C; remark: listed apart in the source
# [5] = amide bond, 12-membered ring, DEPBT/DIPEA, DMF, 1.0 mM
molecule,measurement,setting,value
"N=C(N)NCCC[C@@H]1NC2(CNC(=O)[C@H](CC(N)=O)NC(=O)[C@@H](N)CSSC[C@@H](C(=O)O)NC1=O)COC2 [Compound 12, Cyclo(H-CVs-Asn-GOx-Arg-CVs-OH)]",IC50,[1],175 µM
CC(C)C[C@@H]1NC(=O)[C@H](Cc2ccc(O)cc2)NC(=O)[C@H](C)NC2(CNC(=O)[C@H](C)NC1=O)COC2 [Cyclo(Ala-GOx-Ala-Tyr-Leu)],"ring closure, yield of all isomers","[2]; from CC(C)C[C@H](NC(=O)[C@H](Cc1ccc(O)cc1)NC(=O)[C@H](C)NC1(CNC(=O)[C@H](C)N)COC1)C(=O)O, DEPBT/DIPEA, 1.0 mM, 24.0 h",54%
CC(C)C[C@@H]1NC(=O)[C@H](Cc2ccc(O)cc2)NC(=O)[C@H](C)NC(=O)CNC(=O)[C@H](C)NC1=O [Cyclo(Ala-Gly-Ala-Tyr-Leu)],"ring closure, yield of all isomers","[2]; from CC(C)C[C@H](NC(=O)[C@H](Cc1ccc(O)cc1)NC(=O)[C@H](C)NC(=O)CNC(=O)[C@H](C)N)C(=O)O, DEPBT/DIPEA, 1.0 mM, 24.0 h",42%
CC(C)C[C@@H]1NC(=O)[C@H](Cc2cn(C(=O)OC(C)(C)C)c3ccccc23)NC(=O)CNC2(CNC1=O)COC2 [Cyclo(Leu-GOx-Gly-Trp(Boc))],"ring closure, yield of all isomers","[2]; from CC(C)C[C@H](N)C(=O)NCC1(NCC(=O)N[C@@H](Cc2cn(C(=O)OC(C)(C)C)c3ccccc23)C(=O)O)COC1, DEPBT, 1.0 mM, 64.0 h, 6 steps",39%
CC(C)C[C@@H]1NC(=O)[C@H](Cc2c[nH]c3ccccc23)NC(=O)CNC2(COC2)[C@H](C)NC1=O [Cyclo(Trp-Leu-AOx-Gly)],"ring closure, yield of all isomers","[2]; from CC(C)C[C@H](NC(=O)[C@@H](N)Cc1c[nH]c2ccccc12)C(=O)N[C@@H](C)C1(NCC(=O)O)COC1, DEPBT, 1.0 mM, 48.0 h",50%
CC(C)C[C@@H]1NC(=O)[C@H](Cc2c[nH]c3ccccc23)NC(=O)CNC2(CNC1=O)COC2 [Cyclo(Trp-Leu-GOx-Gly)],"ring closure, yield of all isomers","[2]; from CC(C)C[C@H](NC(=O)[C@@H](N)Cc1c[nH]c2ccccc12)C(=O)NCC1(NCC(=O)O)COC1, DEPBT/DIPEA, 1.0 mM, 48.0 h",65%
CC(C)C[C@@H]1NC(=O)[C@H](Cc2c[nH]c3ccccc23)NC(=O)CNC(=O)CNC1=O [Cyclo(Trp-Leu-Gly-Gly)],"ring closure, yield of all isomers","[2]; from CC(C)C[C@H](NC(=O)[C@@H](N)Cc1c[nH]c2ccccc12)C(=O)NCC(=O)NCC(=O)O, PyBOP/DIPEA, 1.0 mM, 48.0 h",15%
CC(C)C[C@@H]1NC(=O)[C@H](Cc2ccccc2)NC(=O)[C@H]([C@@H](C)OC(C)(C)C)NC2(CNC(=O)[C@H](C(C)C)NC(=O)[C@H](Cc3ccc(OC(C)(C)C)cc3)NC1=O)CN(C(=O)OC(C)(C)C)C2 [Cyclo-(Leu-Tyr(^tBu)-Val-GAz(Boc)-Thr(^tBu)-Phe)],"ring closure, yield of all isomers","[2]; from CC(C)C[C@H](N)C(=O)N[C@@H](Cc1ccc(OC(C)(C)C)cc1)C(=O)N[C@H](C(=O)NCC1(N[C@H](C(=O)N[C@@H](Cc2ccccc2)C(=O)O)[C@@H](C)OC(C)(C)C)CN(C(=O)OC(C)(C)C)C1)C(C)C, DEPBT, 5.0 mM, 48.0 h",57%
C[C@@H](OC(C)(C)C)[C@@H]1NC2(CNC(=O)[C@H](CCC(=O)OC(C)(C)C)NC(=O)[C@H](Cc3ccccc3)NC(=O)CNC1=O)CN(C(=O)OC(C)(C)C)C2 [Cyclo-(Phe-Glu(^tBu)-GAz(Boc)-Thr(^tBu)-Gly)],"ring closure, yield of all isomers","[2]; from C[C@@H](OC(C)(C)C)[C@H](NC1(CNC(=O)[C@H](CCC(=O)OC(C)(C)C)NC(=O)[C@@H](N)Cc2ccccc2)CN(C(=O)OC(C)(C)C)C1)C(=O)NCC(=O)O, DEPBT, 5.0 mM, 68.0 h",73%
Cyclo(Ala-GOx-Ala-Tyr-Leu),"ring closure, isolated yield","[3]; amide bond, 15-membered ring, DEPBT/DIEA, DMF, 1.0 mM",54%
Cyclo(Ala-Gly-Ala-Tyr-Leu),"ring closure, isolated yield","[3]; amide bond, 15-membered ring, DEPBT/DIPEA, DMF, 1.0 mM",42%
Cyclo(Ala-Trp-GOx-Gly-Leu),"ring closure, yield after HPLC","[4]; amide bond, 15-membered ring, DEPBT/DIPEA, DMF, 1.0 mM, with chain assembly",13%
Cyclo(Boc-Cys-GOx-Cys-OtBu),"ring closure, isolated yield","[3]; disulfide bond, 11-membered ring, I2, MeOH, 5.0 mM",64%
Cyclo(H-CVs-Asn-GOx-Arg-CVs-OH),"ring closure, yield after HPLC","[4]; disulfide bond, 17-membered ring, I2, MeOH, 10.0 mM, 2 steps",32%
Cyclo(Leu-GOx-Gly-Trp(Boc)),"ring closure, isolated yield","[3]; amide bond, 12-membered ring, DEPBT/DIPEA, DMF, 1.0 mM, with chain assembly",39%
Cyclo(Met-Ala-Trp-GOx-Gly-Leu),"ring closure, yield after HPLC","[4]; amide bond, 18-membered ring, DEPBT/DIPEA, DMF, 1.0 mM, with chain assembly",7%
Cyclo(Ser-Met-Ala-Trp-GOx-Gly-Leu),"ring closure, yield after HPLC","[4]; amide bond, 21-membered ring, DEPBT/DIPEA, DMF, 1.0 mM, with chain assembly",13%
Cyclo(Trp-Leu-AOx-Gly),"ring closure, isolated yield",[3]; [5],49% and 50%
Cyclo(Trp-Leu-GOx-Gly),"ring closure, isolated yield","[3]; amide bond, 12-membered ring, DEPBT/DIEA, DMF, 1.0 mM",65%
Cyclo(Trp-Leu-Gly-Gly),"ring closure, isolated yield","[3]; amide bond, 12-membered ring, PyBOP/DIEA, DMF, 1.0 mM",15%
Cyclo-((D)Pro-Leu-GAz(Boc)-Gly),"ring closure, isolated yield",[3]; [5],79%
Cyclo-(Leu-Tyr(^tBu)-Val-GAz(Boc)-Thr(^tBu)-Phe),"ring closure, isolated yield","[3]; amide bond, 18-membered ring, DEPBT/DIPEA, DMF, 5.0 mM",57%
Cyclo-(Phe-Glu(^tBu)-GAz(Boc)-Thr(^tBu)-Gly),"ring closure, isolated yield","[3]; amide bond, 15-membered ring, DEPBT/DIPEA, DMF, 5.0 mM",73%
